Assay results published in patent US12435046B2, “Alkynyl quinazoline compounds” (Black Diamond Therapeutics, Inc., priority 2019, dated 2025).

Columns and labels:
Format in all cases: cell-based
Settings in all cases: Table A; BaF3 cells, 3 days
HER2 YVMA = biological target: T1, HER2 YVMA (Homo sapiens, UniProt P04626, INS775YVMA); assay: BaF3 cell proliferation assay (CellTiterGlo), HER2 YVMA
T1 construct: expressed in transfected cells; host or cells: BaF3 (murine pro-B) cells

EGFR wt = biological target: T2, EGFR wt (Homo sapiens, UniProt P00533); assay: BaF3 cell proliferation assay (CellTiterGlo), EGFR wt
T2 construct: expressed in transfected cells; host or cells: BaF3 (murine pro-B) cells, retroviral transduction with pMXs-IRES-Blasticidin
T2 sequence (P00533 25-1210): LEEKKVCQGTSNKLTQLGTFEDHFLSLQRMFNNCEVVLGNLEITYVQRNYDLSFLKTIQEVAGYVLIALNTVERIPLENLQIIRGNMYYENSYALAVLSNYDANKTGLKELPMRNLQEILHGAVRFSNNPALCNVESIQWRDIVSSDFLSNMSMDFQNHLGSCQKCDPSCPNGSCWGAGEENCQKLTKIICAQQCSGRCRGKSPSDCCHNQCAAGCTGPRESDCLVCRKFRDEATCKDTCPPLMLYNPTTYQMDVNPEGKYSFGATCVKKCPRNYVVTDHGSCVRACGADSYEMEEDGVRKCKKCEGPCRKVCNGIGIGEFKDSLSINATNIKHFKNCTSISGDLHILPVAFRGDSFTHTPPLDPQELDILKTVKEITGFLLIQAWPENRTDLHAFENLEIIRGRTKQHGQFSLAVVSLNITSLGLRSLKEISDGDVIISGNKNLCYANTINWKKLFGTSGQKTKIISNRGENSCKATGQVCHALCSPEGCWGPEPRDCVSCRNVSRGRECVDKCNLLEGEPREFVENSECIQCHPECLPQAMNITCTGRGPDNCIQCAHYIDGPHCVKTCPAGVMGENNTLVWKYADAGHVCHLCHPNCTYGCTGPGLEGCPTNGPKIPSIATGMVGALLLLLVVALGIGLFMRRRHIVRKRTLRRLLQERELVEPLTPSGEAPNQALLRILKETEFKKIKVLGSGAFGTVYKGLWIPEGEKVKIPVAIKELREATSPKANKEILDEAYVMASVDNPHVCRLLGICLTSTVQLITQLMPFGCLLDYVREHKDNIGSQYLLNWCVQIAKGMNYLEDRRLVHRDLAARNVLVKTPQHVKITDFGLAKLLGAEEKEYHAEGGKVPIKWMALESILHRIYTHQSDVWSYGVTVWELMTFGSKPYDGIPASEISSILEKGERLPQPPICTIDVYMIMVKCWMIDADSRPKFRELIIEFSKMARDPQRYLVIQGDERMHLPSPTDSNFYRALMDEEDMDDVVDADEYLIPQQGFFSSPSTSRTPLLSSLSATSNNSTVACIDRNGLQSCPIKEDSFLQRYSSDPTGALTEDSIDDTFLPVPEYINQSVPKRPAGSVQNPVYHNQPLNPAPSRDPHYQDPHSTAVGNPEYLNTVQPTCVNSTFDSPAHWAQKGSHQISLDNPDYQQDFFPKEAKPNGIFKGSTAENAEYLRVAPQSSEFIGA
Method: (§1) Retroviral Production: EGFR mutants were subcloned into pMXs-IRES-Blasticidin (RTV-016, Cell Biolabs, San Diego, CA). Retroviral expression vector retrovirus was produced by transient transfection of HEK 293T cells with the retroviral EGFR mutant expression vector pMXs-IRES-Blasticidin (RTV-016, Cell Biolabs), pCMV-Gag-Pol vector and pCMV-VSV-G-Envelope vector. Briefly, HEK 293T/17 cells were plated in 100 mm collagen coated plate (354450, Corning Life Sciences, Tewksbury, MA) (4×10^5 per plate) and incubated overnight. The next day, retroviral plasmids (3 ng of EGFR mutant, 1.0 ng of pCMV-Gag-Pol and 0.5 ng pCMV-VSV-G) were mixed in 500 n1 of Optimem (31985, Life Technologies). The mixture was incubated at room temperature for 5 min and then added to Optimem containing transfection reagent Lipofectamine (11668, Invitrogen) and incubated for 20 minutes. Mixture was then added dropwise to HEK 293T cells. The next day the medium was replaced with fresh culture medium and retrovirus was harvested @ 24 and 48 hrs.
(§2) Generation of EGFR mutant stable cell lines: BaF3 cells (1.5E5 cells) were infected with 1 ml of viral supernatant supplemented with 8 ng/ml polybrene by centrifuging for 30 min at 1000 rpm. Cells were placed in a 37° C. incubator overnight. Cells were then spun for 5 minutes to pellet the cells. Supernatant was removed and cells re-infected a fresh 1 ml of viral supernatant supplemented with 8 ng/ml polybrene by centrifuging for 30 min at 1000 rpm. Cells were placed in 37° C. incubator overnight. Cells were then maintained in RPMI containing 10% Heat Inactivated FBS, 2% L-glutamine containing 10 ng/ml IL-3. After 48 hours cells were selected for retroviral infection in 10 […] for one week. Blasticidin resistant populations were washed twice in phosphate buffered saline before plating in media lacking IL-3 to select for IL-3 independent growth.
(§3) Assay for cell proliferation: BaF3 cell lines were resuspended at 1.3E5 c/ml in RPMI containing 10% Heat Inactivated FBS, 2% L-glutamine and 1% Pen/Strep and dispensed in triplicate (17.5E4 c/well) into 96 well plates. To determine the effect of drug on cell proliferation, cells incubated for 3 days in the presence of vehicle control or test drug at varying concentrations. Inhibition of cell growth was determined by luminescent quantification of intracellular ATP content using CellTiterGlo (Promega), according to the protocol provided by the manufacturer. Comparison of cell number on day 0 versus 72 hours post drug treatment was used to plot dose-response curves. The number of viable cells was determined and normalized to vehicle-treated controls. Inhibition of proliferation, relative to vehicle-treated controls was expressed as a fraction of 1 and graphed using PRISM® software (Graphpad Software, San Diego, CA). EC50 values were determined with the same application.

HER2 S310F = biological target: T3, HER2 S310F (Homo sapiens, UniProt P04626, S310F); assay: BaF3 cell proliferation assay (CellTiterGlo), HER2 S310F
T3 construct: expressed in transfected cells; host or cells: BaF3 (murine pro-B) cells
T3 sequence (P04626 23-1255 S310F): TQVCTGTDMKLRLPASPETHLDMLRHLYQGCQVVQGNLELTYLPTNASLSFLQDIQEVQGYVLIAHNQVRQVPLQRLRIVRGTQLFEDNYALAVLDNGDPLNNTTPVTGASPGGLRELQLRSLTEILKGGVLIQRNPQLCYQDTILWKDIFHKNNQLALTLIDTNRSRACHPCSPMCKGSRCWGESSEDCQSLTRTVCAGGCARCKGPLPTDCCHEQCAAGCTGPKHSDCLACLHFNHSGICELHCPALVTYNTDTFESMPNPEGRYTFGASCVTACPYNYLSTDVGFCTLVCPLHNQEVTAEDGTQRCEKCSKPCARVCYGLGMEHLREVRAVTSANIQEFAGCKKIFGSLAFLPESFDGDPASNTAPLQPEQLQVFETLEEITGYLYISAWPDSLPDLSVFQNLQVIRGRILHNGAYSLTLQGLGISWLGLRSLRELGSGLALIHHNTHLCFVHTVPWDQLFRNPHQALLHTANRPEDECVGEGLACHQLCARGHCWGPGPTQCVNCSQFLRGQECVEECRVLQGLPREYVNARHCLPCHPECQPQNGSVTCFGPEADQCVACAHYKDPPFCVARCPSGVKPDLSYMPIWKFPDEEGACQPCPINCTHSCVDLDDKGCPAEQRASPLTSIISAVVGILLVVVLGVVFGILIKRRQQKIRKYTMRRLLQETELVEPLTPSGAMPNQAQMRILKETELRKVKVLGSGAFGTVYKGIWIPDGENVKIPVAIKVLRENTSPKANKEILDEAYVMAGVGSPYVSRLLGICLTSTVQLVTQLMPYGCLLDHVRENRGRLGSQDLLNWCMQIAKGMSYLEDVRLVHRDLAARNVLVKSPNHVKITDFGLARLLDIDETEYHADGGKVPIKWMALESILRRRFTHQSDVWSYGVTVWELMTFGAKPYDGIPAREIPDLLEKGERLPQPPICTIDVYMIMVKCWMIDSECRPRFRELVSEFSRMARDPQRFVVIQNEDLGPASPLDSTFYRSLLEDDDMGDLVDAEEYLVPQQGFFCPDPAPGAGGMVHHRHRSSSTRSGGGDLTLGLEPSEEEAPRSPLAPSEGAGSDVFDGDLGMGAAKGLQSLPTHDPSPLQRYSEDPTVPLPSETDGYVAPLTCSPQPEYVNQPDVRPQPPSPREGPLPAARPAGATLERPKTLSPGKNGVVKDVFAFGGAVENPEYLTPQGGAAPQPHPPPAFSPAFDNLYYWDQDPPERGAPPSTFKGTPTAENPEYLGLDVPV

EGFR V3 = biological target: T4, EGFR V3 (Homo sapiens, UniProt P00533, DELINS30-297G); assay: BaF3 cell proliferation assay (CellTiterGlo), EGFR V3
T4 construct: expressed in transfected cells; host or cells: BaF3 (murine pro-B) cells, retroviral transduction with pMXs-IRES-Blasticidin
T4 sequence (P00533 with tags, fused parts or gaps DELINS30-297G): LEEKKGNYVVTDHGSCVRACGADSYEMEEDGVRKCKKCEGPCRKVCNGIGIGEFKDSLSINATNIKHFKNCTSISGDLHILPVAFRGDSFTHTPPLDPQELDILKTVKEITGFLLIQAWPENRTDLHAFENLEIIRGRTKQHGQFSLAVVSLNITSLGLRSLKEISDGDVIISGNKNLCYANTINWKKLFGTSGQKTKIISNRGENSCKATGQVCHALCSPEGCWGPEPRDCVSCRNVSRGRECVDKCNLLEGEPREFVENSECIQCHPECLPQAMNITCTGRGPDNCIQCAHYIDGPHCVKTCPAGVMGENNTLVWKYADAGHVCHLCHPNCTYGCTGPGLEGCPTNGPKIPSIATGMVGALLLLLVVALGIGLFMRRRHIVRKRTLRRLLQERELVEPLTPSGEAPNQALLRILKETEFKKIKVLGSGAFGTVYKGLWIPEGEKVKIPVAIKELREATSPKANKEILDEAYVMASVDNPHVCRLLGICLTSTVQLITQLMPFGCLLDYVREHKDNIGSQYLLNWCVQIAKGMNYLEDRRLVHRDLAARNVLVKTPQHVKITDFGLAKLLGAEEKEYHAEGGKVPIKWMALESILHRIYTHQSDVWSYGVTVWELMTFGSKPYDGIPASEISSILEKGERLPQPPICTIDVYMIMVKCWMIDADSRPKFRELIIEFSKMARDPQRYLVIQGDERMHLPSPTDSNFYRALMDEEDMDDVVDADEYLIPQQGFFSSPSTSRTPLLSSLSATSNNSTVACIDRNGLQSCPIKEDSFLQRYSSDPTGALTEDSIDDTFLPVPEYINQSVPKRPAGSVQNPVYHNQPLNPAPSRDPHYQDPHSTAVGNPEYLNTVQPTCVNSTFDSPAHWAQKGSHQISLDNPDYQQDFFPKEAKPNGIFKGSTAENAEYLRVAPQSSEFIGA
Method: as §1, §2, §3

T1 sequence (P04626 with tags, fused parts or gaps INS775YVMA): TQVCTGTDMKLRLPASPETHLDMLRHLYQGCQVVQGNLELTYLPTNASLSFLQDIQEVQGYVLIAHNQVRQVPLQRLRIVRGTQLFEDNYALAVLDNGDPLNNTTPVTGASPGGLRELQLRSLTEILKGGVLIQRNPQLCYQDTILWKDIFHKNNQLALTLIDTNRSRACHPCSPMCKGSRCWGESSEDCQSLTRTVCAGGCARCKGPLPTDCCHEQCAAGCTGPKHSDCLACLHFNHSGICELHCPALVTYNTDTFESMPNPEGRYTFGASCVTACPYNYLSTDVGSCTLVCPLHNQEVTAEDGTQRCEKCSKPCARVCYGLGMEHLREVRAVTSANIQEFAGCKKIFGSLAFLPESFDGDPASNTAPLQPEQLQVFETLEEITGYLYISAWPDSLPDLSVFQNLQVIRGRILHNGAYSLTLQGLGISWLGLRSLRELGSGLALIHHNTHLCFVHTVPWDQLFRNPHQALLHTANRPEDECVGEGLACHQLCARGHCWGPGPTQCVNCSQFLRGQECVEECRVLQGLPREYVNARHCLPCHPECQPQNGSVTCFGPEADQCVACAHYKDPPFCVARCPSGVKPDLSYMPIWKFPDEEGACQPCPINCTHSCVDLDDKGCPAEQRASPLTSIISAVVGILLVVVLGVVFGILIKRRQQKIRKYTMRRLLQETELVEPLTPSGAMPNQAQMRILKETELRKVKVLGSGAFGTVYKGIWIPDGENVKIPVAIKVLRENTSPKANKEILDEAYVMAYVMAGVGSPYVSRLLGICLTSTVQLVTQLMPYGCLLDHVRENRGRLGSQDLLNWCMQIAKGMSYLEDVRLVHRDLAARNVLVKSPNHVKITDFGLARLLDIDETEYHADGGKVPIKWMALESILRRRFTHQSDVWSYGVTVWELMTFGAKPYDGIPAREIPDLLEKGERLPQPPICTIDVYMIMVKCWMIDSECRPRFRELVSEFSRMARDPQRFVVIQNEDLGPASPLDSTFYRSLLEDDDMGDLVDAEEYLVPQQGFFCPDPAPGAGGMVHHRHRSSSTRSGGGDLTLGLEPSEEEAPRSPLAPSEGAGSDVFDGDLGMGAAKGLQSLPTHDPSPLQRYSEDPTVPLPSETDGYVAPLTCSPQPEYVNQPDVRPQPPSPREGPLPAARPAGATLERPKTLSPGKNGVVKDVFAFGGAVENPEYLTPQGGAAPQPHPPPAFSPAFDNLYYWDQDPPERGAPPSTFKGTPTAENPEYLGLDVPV

Structure (SMILES)	IC50 (HER2 YVMA)	IC50 (EGFR wt)	IC50 (HER2 S310F)	IC50 (EGFR V3)
C=CC(=O)Nc1cc2c(Nc3cccc(Cl)c3F)ncnc2cc1C#CC1(C)CCN(C)CC1 [Compound 4, N-(4-((3-chloro-2-fluorophenyl)amino)-7-((1,4-dimethylpiperidin-4-yl)ethynyl)quinazolin-6-yl)acrylamide]	100 to 500 nM	50 to 100 nM	100 to 500 nM	≤ 50 nM
C=C(F)C(=O)Nc1cc2c(Nc3cccc(Cl)c3F)ncnc2cc1C#CC1(C)CCN(C)C1 (stereo not shown) [Compound 5, N-(4-((3-chloro-2-fluorophenyl)amino)-7-((1,3-dimethylpyrrolidin-3-yl)ethynyl)quinazolin-6-yl)-2-fluoroacrylamide]	100 to 500 nM	≤ 50 nM	100 to 500 nM	≤ 50 nM
C=CC(=O)Nc1cc2c(Nc3cccc(Cl)c3F)ncnc2cc1C#C[C@@]1(C)CCCN1C [Compound 6, (R)—N-(4-((3-chloro-2-fluorophenyl)amino)-7-((1,2-dimethylpyrrolidin-2-yl)-ethynyl)quinazolin-6-yl)acrylamide]	> 500 nM	> 500 nM	100 to 500 nM	50 to 100 nM
C=CC(=O)Nc1cc2c(Nc3ccc(Cl)c(Cl)c3F)ncnc2cc1C#CC1(C)CCN(C)C1 (stereo not shown) [Compound 7, N-(4-((3,4-dichloro-2-fluorophenyl)amino)-7-((1,3-dimethylpyrrolidin-3-yl)ethynyl)quinazolin-6-yl)acrylamide]	100 to 500 nM	≤ 50 nM	50 to 100 nM	≤ 50 nM
C=CC(=O)Nc1cc2c(Nc3ccc(F)c(Cl)c3F)ncnc2cc1C#CC1(C)CCN(C)C1 (stereo not shown) [Compound 8, N-(4-((3-chloro-2,4-difluorophenyl)amino)-7-((1,3-dimethylpyrrolidin-3-yl)ethynyl)-quinazolin-6-yl)acrylamide]	100 to 500 nM	≤ 50 nM	50 to 100 nM	≤ 50 nM
C=CC(=O)Nc1cc2c(Nc3cccc(Cl)c3F)ncnc2cc1C#CC12CCC(CC1)N2C [Compound 10, N-(4-((3-chloro-2-fluorophenyl)amino)-7-((7-methyl-7-azabicyclo[2.2.1]heptan-1-yl)ethynyl)quinazolin-6-yl)acrylamide]	> 500 nM	100 to 500 nM	100 to 500 nM	≤ 50 nM
C=CC(=O)Nc1cc2c(Nc3cccc(Cl)c3F)ncnc2cc1C#CC1(C)CN(C)C1 [Compound 11, N-(4-((3-chloro-2-fluorophenyl)amino)-7-((1,3-dimethylazetidin-3-yl)ethynyl)quinazolin-6-yl) acrylamide]	100 to 500 nM	100 to 500 nM	100 to 500 nM	≤ 50 nM
C=CC(=O)Nc1cc2c(Nc3ccc(OCc4ccccn4)c(Cl)c3)ncnc2cc1C#C[C@]1(C)CCN(C)C1 [Compound 13, (S)—N-(4-((3-chloro-4-(pyridin-2-ylmethoxy)phenyl)amino)-7-((1,3-dimethylpyrrolidin-3-yl)ethynyl)quinazolin-6-yl)acrylamide]	≤ 50 nM	100 to 500 nM	≤ 50 nM	≤ 50 nM
C=CC(=O)Nc1cc2c(Nc3ccc(OCc4ccccn4)c(Cl)c3)ncnc2cc1C#C[C@@]1(C)CCN(C)C1 [Compound 14, (R)—N-(4-((3-chloro-4-(pyridin-2-ylmethoxy)phenyl)amino)-7-((1,3-dimethylpyrrolidin-3-yl)ethynyl)quinazolin-6-yl)acrylamide]	50 to 100 nM	> 500 nM	≤ 50 nM	≤ 50 nM
C=CC(=O)Nc1cc2c(Nc3ccc(OCc4ccccn4)c(Cl)c3)ncnc2cc1C#C[C@@]1(C)CCCN1C [Compound 16, (R)—N-(4-((3-chloro-4-(pyridin-2-ylmethoxy)phenyl)amino)-7-((1,2-dimethylpyrrolidin-2-yl)ethynyl)quinazolin-6-yl)acrylamide]	100 to 500 nM	> 500 nM	≤ 50 nM	50 to 100 nM
C=CC(=O)Nc1cc2c(Nc3cccc(Cl)c3F)ncnc2cc1C#CC12CCN(CC1)CC2 [Compound 17, N-(4-((3-chloro-2-fluorophenyl)amino)-7-(quinuclidin-4-ylethynyl)-quinazolin-6-yl)acrylamide]	100 to 500 nM	≤ 50 nM	100 to 500 nM	≤ 50 nM
CN1C[C@H]2C[C@@]2(C#Cc2cc3ncnc(Nc4cccc(Cl)c4F)c3cc2NC(=O)/C=C/CN2CCCC(C(=O)O)C2)C1 (stereo partly drawn) [Compound 19, 1-[(E)-4-[[4-(3-chloro-2-fluoro-anilino)-7-[2-[(1R,5S)-3-methyl-3-azabicyclo[3.1.0]hexan-1-yl]ethynyl]quinazolin-6-yl]amino]-4-oxo-but-2-enyl]piperidine-3-carboxylic acid]	> 500 nM	100 to 500 nM	50 to 100 nM	> 500 nM
COC/C=C/C(=O)Nc1cc2c(Nc3cccc(Cl)c3F)ncnc2cc1C#C[C@@]12C[C@@H]1CN(C)C2 [Compound 21, (E)-N-(4-((3-chloro-2-fluorophenyl)amino)-7-(((1R,5S)-3-methyl-3-azabicyclo[3.1.0]hexan-1-yl)ethynyl)quinazolin-6-yl)-4-methoxybut-2-enamide]	> 500 nM	≤ 50 nM	100 to 500 nM	100 to 500 nM
CN1C[C@H]2C[C@@]2(C#Cc2cc3ncnc(Nc4cccc(Cl)c4F)c3cc2NC(=O)C(F)Cl)C1 (stereo partly drawn) [Compound 23, 2-chloro-N-(4-((3-chloro-2-fluorophenyl)-amino)-7-(((1R,5S)-3-methyl-3-azabicyclo[3.1.0]hexan-1-yl)ethynyl)quinazolin-6-yl)-2-fluoroacetamide]	–	50 to 100 nM	100 to 500 nM	> 500 nM
CN(C)C/C=C/C(=O)Nc1cc2c(Nc3cccc(Cl)c3F)ncnc2cc1C#C[C@@]1(C)CCN(C)C1 [Compound 24, (R,E)-N-(4-((3-chloro-2-fluorophenyl)amino)-7-((1,3-dimethylpyrrolidin-3-yl)ethynyl)quinazolin-6-yl)-4-(dimethylamino)but-2-enamide]	–	> 500 nM	100 to 500 nM	50 to 100 nM
C=C(C)C(=O)Nc1cc2c(Nc3cccc(Cl)c3F)ncnc2cc1C#C[C@@]1(C)CCN(C)C1 [Compound 25, (R)—N-(4-((3-chloro-2-fluorophenyl)amino)-7-((1,3-dimethylpyrrolidin-3-yl)ethynyl)quinazolin-6-yl)methacrylamide]	> 500 nM	100 to 500 nM	> 500 nM	> 500 nM
C=C(CO)C(=O)Nc1cc2c(Nc3cccc(Cl)c3F)ncnc2cc1C#C[C@@]12C[C@@H]1CN(C)C2 [Compound 26, N-[4-(3-chloro-2-fluoro-anilino)-7-[2-[(1R,5S)-3-methyl-3-azabicyclo[3.1.0]hexan-1-yl]ethynyl]quinazolin-6-yl]-2-(hydroxymethyl)prop-2-enamide]	100 to 500 nM	50 to 100 nM	50 to 100 nM	≤ 50 nM
C=CC(=O)Nc1cc2c(Nc3cccc(Cl)c3F)ncnc2cc1C#C[C@@]1(F)CCN(C)C1 [Compound 45, N-{4-[(3-chloro-2-fluorophenyl)amino]-7-{2-[(3S)-3-fluoro-1-methylpyrrolidin-3-yl]ethynyl}quinazolin-6-yl}prop-2-enamide]	> 500 nM	100 to 500 nM	100 to 500 nM	≤ 50 nM
CN1CC[C@](C)(C#Cc2cc3ncnc(Nc4cccc(Cl)c4F)c3cc2NC(=O)/C=C/CN2CCOCC2)C1 [Compound No. 81, (R,E)-N-(4-((3-chloro-2-fluorophenyl)amino)-7-((1,3-dimethylpyrrolidin-3-yl)ethynyl)quinazolin-6-yl)-4-morpholinobut-2-enamide]	> 500 nM	–	> 500 nM	100 to 500 nM
